Assay results reported in patent US20040204596A1, “Method for the preparation of unsaturated hydroxy fatty acids and their esters, their use in pharmaceutical and/or cosmetic preparations” (Pierre Potier, priority 2001, published 2004).
Where “and” joins values, the source holds several entries; their conditions need not be identical. Equal entries are not always repeated. Each block holds one compound with its values, some of them ahead of it.

Columns and labels:
collagenase [1] = assay: Anticollagenase activity on human skin explants maintained in survival state; type: cell-based
Experimental: The study was performed on a 5% GM product in comparison with the excipient (hydrocerin), a positive control and a control in the presence of collagenase at 100 U/ml.
Hydrocerin was used as the excipient for the preparation of the product to be applied. This study was performed twice. […] In the second study, the study time was extended and the collection of the explants was performed on Day 2 and on Day 4.
Human skin explants prepared and distributed into 16 lots of three explants each were placed in survival state according to Table 3.
The product was applied on Day 0 and on Day 2 at the rate of 20 mg per explant and collagenase was incorporated into the culture medium of the […].
Three explants of each lot were collected on Day 2 and on Day 4, fixed in ordinary Bouin's fixative and subjected to histological processing.
The histological study comprised:
impregnation in paraffin,
staining with Sirius red F3B,
calorimetric measurements of the collagen by image analysis,
comparison with photographs.
For this reason, the survival, the contact and the application were extended to Day 4. The collagenase action was monitored in two ways: intensity of the coloration of the collagen network and thickness of the dermal structure. With this study, penetration of the active principle and its inhibitory activity were correlated in relation to collagenase.

collagenase [2] = assay: Anticollagenase activity on frozen sections of human skin (picrosirius staining); type: biochemical; design: key to Alteration of the collagen structure: 0: An absence of alteration of the collagen structure; 1: somewhat; 2: markedly to very strongly altered collagen structure; details: for Alteration of the collagen structure: frozen human skin sections, 2 hours at 37° C.; for inhibition of the activity of collagenase: collagenase 30 U/ml
Experimental: This example was performed with different solutions at concentrations of 1 and 2% of active principles in comparison with the excipient alone, buffer controls and collagenase. The active principles used were DHA, the 2-dimethylamino ethyl ester of trans-10-hydroxy-2-decenoic acid (ML40) and the glycerol ester of trans-10-hydroxy-2-decenoic acid (GM).
Frozen 5-μm-thick sections from a mammary plasty of a person were placed on histological slides (4 sections per slide). Each solution was tested on one slide.
The sections were covered with the solutions to be tested then incubated for 2 hours at 37° C. in a humid chamber. The solutions were eliminated by repeated rinsings and the sections were stained with picrosirius. Microscopic examination was performed with the 2.5 objective and paper photographs were taken with Kodak Gold 100 ASA film.
Table 2 summarizes the results of alteration of the collagen structure as a function of the tested solution. An absence of alteration of the collagen structure is indicated by 0 while a somewhat or markedly to very strongly altered collagen structure is indicated, respectively, by 1 or 2.

adipose tissue explants = assay: Lipolytic activity on adipose tissue explants ex vivo (lipids released in culture medium, TLC; histology); type: cell-based
Experimental: DHA was incorporated in the culture medium at a final concentration of 0.25 and 0.5%. After 8 days of contact, the activity was evaluated by quantitative determination of the lipids distributed in the culture medium.
Twelve adipose tissue explants (plasty P202-AB31) were prepared and placed in survival state in BEM medium (BIO-EC's Explants Medium). The explants were distributed in 4 lots of 3 explants:
one positive control lot (caffeine at 0.1%),
two product lots (DHA at 0.25 and 0.5%).
On Day 0, the explants were placed in survival state in 2 ml of culture medium, in which the product to be tested was incorporated.
This treatment was renewed on Day 2, Day 4 and Day 6.
On Day 2, Day 4, Day 6 and Day 8, the culture medium was collected. For each explant, the media collected on Day 2, Day 4, Day 6 and Day 8 were grouped together in the same tube and preserved at −20° C. for quantitative determination of the lipids.
On Day 8, the adipose tissue explants were collected and fixed in ordinary Bouin's fixative for the histological study.
The fixed adipose tissue explants were dehydrated, impregnated with paraffin, but in block form, sectioned and stained with Masson's trichrome.
After extraction of the culture medium, the lipids were separated and quantitatively determined by TLC.
The viability and morphology of the adipocytes was monitored by the histologic study.
The lipolytic activity was evaluated by analysis of the proportions of monoglycerides, diglycerides, triglycerides and free fatty acids.
The results are expressed in mass (μg) of each category of lipid released in the culture medium during the 8 days of treatment.
Table 5 below represents the statistical analysis using Student's test of the results of the quantitative determination of the fatty acids released in the culture medium during the 8 days of treatment.

[3] = tested on: cutaneous 5-alpha-reductase; assay: Inhibition of cutaneous 5-alpha-reductase activity; type: biochemical
Description: DHA is capable of inhibiting cutaneous 5-alpha-reductase, the enzyme responsible for the production of di-hydro-testosterone. Treatment with 0.1% of DHA and treatment with 0.5% of DHA reduced by about 70% and about 90%, respectively, the 5-alpha-reductase activity compared to an untreated control. This inhibition results in a considerable reduction of the sebum level.

[4] = product containing 5% of GM in hydrocerin, 20 mg per explant on Day 0 and Day 2, collagenase 100 U/ml, Day 4
[5] = 1% active principle + collagenase 30 U/ml
[6] = 1% active principle, no collagenase
[7] = 2% active principle + collagenase 30 U/ml
[8] = 2% active principle, no collagenase
[9] = caffeine 0.1%, 8 days of treatment
[10] = DHA at 0.25%, 8 days of treatment
[11] = DHA at 0.5%, 8 days of treatment

Structure (SMILES): Cn1c(=O)c2c(ncn2C)n(C)c1=O [Caffeine, caffeine, reference compound]
% augmentation/Control of fatty acids released (adipose tissue explants; [9]): 2780.6% | Diglycerides released in the culture medium, Mean (adipose tissue explants; [9]): 0.02 µg | Fatty acids released in the culture medium, Mean (adipose tissue explants; [9]): 27.99 µg | Monoglycerides released in the culture medium, Mean (adipose tissue explants; [9]): 1.22 µg | Triglycerides released in the culture medium, Mean (adipose tissue explants; [9]): 197.34 µg | fatty acids released in the culture medium, individual explants (adipose tissue explants; [9]): 33.89 µg and 24.10 µg and 25.97 µg | % augmentation/Control of fatty acids released (adipose tissue explants; caffeine 0.1%, 8 days of treatment, listed as caffeine): 2780% | augmentation factor of fatty acids released compared to the untreated control (adipose tissue explants; caffeine at 0.1%, 8 days of treatment): about 29

Structure (SMILES): c1cnc2c(c1)ccc1cccnc12 [phenanthroline, reference compound]
dermal structure (collagenase [1]; positive control + collagenase 100 U/ml, Day 4): the same as that of the controls without collagenase

Now from value to compound, other results behind:

Alteration of the collagen structure (collagenase [2]; [5]): 2 | Alteration of the collagen structure (collagenase [2]; [6]): 0 | Alteration of the collagen structure (collagenase [2]; [7]): 1 | Alteration of the collagen structure (collagenase [2]; [8]): 0 | inhibition of the activity of collagenase (collagenase [2]; 2%): only slightly inhibited
Structure (SMILES): O=C(/C=C/CCCCCCCO)OCC(O)CO (stereo not drawn) [GM, glycerol ester of trans-10-hydroxy-2-decenoic acid]
anticollagenase activity (collagenase [1]; 5% GM product, human skin explants, collagenase 100 U/ml): pronounced anticollagenase activity | degradation of the collagen bundles (collagenase [1]; [4]): very slightly degraded | thickness of the dermis (collagenase [1]; [4]): diminished slightly

Alteration of the collagen structure (collagenase [2]; [5]): 2 | Alteration of the collagen structure (collagenase [2]; [6]): 0 | Alteration of the collagen structure (collagenase [2]; [7]): 1 | Alteration of the collagen structure (collagenase [2]; [8]): 0 | inhibition of the activity of collagenase (collagenase [2]; 2%): only slightly inhibited
Structure (SMILES): CN(C)CCOC(=O)/C=C/CCCCCCCO [ML40, 2-dimethylamino ethyl ester of trans-10-hydroxy-2-decenoic acid]

Alteration of the collagen structure (collagenase [2]; [5]): 0 | Alteration of the collagen structure (collagenase [2]; [6]): 0 | inhibition of the activity of collagenase (collagenase [2]; 1%): inhibited completely | Alteration of the collagen structure (collagenase [2]; [7]): 0 | Alteration of the collagen structure (collagenase [2]; [8]): 0 | inhibition of the activity of collagenase (collagenase [2]; 2%): inhibited completely | reduction of 5-alpha-reductase activity compared to an untreated control ([3]; treatment with 0.1% of DHA): about 70% | reduction of 5-alpha-reductase activity compared to an untreated control ([3]; treatment with 0.5% of DHA): about 90%
Structure (SMILES): O=C(O)/C=C/CCCCCCCO [DHA, trans-10-hydroxy-2-decenoic acid]
lipolytic activity (Student's test) (adipose tissue explants; DHA applied at 0.25%): significant lipolytic activity | lipolytic activity (Student's test) (adipose tissue explants; DHA applied at 0.5%): significant lipolytic activity | % augmentation/Control of fatty acids released (adipose tissue explants; [10]): 1075% and 1075.6% | Diglycerides released in the culture medium, Mean (adipose tissue explants; [10]): 0.00 µg | Fatty acids released in the culture medium, Mean (adipose tissue explants; [10]): 11.42 µg | Monoglycerides released in the culture medium, Mean (adipose tissue explants; [10]): 3.64 µg | Triglycerides released in the culture medium, Mean (adipose tissue explants; [10]): 156.15 µg | fatty acids released in the culture medium, individual explants (adipose tissue explants; [10]): 9.95 µg and 11.67 µg and 12.66 µg | % augmentation/Control of fatty acids released (adipose tissue explants; [11]): 1087% and 1086.8% | Diglycerides released in the culture medium, Mean (adipose tissue explants; [11]): 0.00 µg | Fatty acids released in the culture medium, Mean (adipose tissue explants; [11]): 11.53 µg | Monoglycerides released in the culture medium, Mean (adipose tissue explants; [11]): 7.06 µg | Triglycerides released in the culture medium, Mean (adipose tissue explants; [11]): 202.56 µg | fatty acids released in the culture medium, individual explants (adipose tissue explants; [11]): 12.81 µg and 11.64 µg and 10.14 µg | maximum effective dose (lipolytic effect) (adipose tissue explants; adipose tissue explants, 8 days): ~0.25%
